Data: article PMC7308888, “Development of a cell-free split-luciferase biochemical assay as a tool for screening for inhibitors of challenging protein-protein interaction targets” (Wellcome Open Research, 2020)

Molecular target: T1, KRAS-G12C (Homo sapiens, UniProt P01116, G12C)
T1 construct: full-length KRAS-G12C, Sm-BiT fused at the N-terminus; with p110α RBD (aa133-314), LgBiT fusion
Assay: NanoBiT split-luciferase KRAS/RBDα interaction assay in HEK293 cell lysate
Assay type: biochemical

NanoBiT split-luciferase KRAS/RBDα interaction assay in HEK293 cell lysate: ~ 1 µM
Structure (SMILES): Cn1cnc(Cn2ccc3ccc(CNCc4[nH]c5ccccc5c4[C@H]4NC(=O)c5ccc(O)cc54)cc32)c1 [BI-2852]
